{
  "source": "patent US9585878B2",
  "about": "“Treatment of BDNF-related disorders using laquinimod” (TEVA PHARMACEUTICAL INDUSTRIES, LTD., priority 2009, dated 2017)",
  "key": {"[1]": {"system": "Balb/c mice", "assay": "Forced Swim Test (FST)", "type": "in vivo"}, "[2]": {"system": "Balb/c mice", "assay": "Open Field Test (motility and anxiety parameters)", "type": "in vivo", "procedure": "The Open Field Test—Exploratory locomotor activity used in Examples 3.1 and 3.2 described below is one of the most popular in evaluation of animals' behavior. It tests both motility parameters and anxiety (Prut et al). An individual mouse is placed in a novel plexiglass arena of 50×50 cm the floor of which is divided into 3 digital zones: the outer peripheral zone 1, the medial zone 2 and the most central zone 3. The animal behavior in the open field is recorded by videotaping for 20 min and is analyzed subsequently digitally using Noldus software for animal behavior. The measurements include general motility (distance moved, velocity and strong mobility) and anxiety parameters (including frequency of visits to the central area, time spent in the inner field, and number of rearing events in the center). The more the animal stays and performs in the center, the less anxious it is.\n(§1) Balb/c male mice were divided to 6 groups (5/group) and administered laquinimod (1, 5, 10 and 25 mg/kg p.o. in the form of laquinimod sodium solution via gavage), fluoxetine (positive control 10 mg/kg po) or vehicle daily for 3 days. On the third day, 90 min following administration, mice were exposed to the open field for 20 min. Behavior was video recorded and analyzed using Ethovision software (Noldus Holland).\nas §1, with “(0.5, 1, 5” for “(1, 5, 10”, “field test” for “field”, “minutes.” for “min.”"}, "[3]": {"system": "brain-derived neurotrophic factor (BDNF)", "assay": "Clinical trial in RRMS patients: BDNF concentration in serum by sandwich ELISA", "type": "in vivo, human", "conditions": "for Mean BDNF concentration in serum: RRMS patients", "procedure": "A study was initiated in relapsing remitting multiple sclerosis (RRMS) patients using laquinimod, 0.6 mg daily, in the form of the sodium salt, in an oral, once-daily tablet formulation. The study was a multinational, multicenter, randomized, double-blind, parallel-group, placebo controlled study assessing the efficacy, tolerability and safety of two doses of laquinimod in subjects with RRMS. Eligible subjects were randomized into the following three groups:\n1. 0.6 mg of laquinimod per os (p.o.) once daily;\n2. 0.3 mg of laquinimod per os (p.o.) once daily; and\n3. Matching placebo, per os (p.o.) once daily. Subjects must meet the following inclusion criteria to be included in the study:\n• 1. a confirmed MS diagnosis as defined by the McDonald criteria; • 2. a RRMS disease course; • 3. at least one documented relapse n the 12 months prior to screening; • 4. at least one Gadolinium-enhanced lesion on their screening MRI scan; • 5. ambulatory with a Kurtzke EDSS score of 1.0-5.0 (Converted); • 6. between 18-50 years of age inclusive; • 7. relapse-free and off corticosteroids or ACTH for at least 30 days prior to the MRI scan at screening; • 8. relapse-free and off corticosteroids between screening and randomization; • 9. women of child-bearing potential practiced a reliable method of birth control; • 10. willing and able to comply with the protocol requirements for the duration of the study; and • 11. able to give signed, written and informed consent prior to entering the study. Subjects meeting any one of the following exclusion criteria were excluded from the study: • 1. suffered from any form of progressive MS; • 2. use of immunosuppressive or cytotoxic treatments within 6 months prior to the screening visit (including azathioprine, cyclophosphamide and methotrexate); • 3. use of experimental drugs, and/or participation in drug clinical studies within the 6 months prior to screening; • 4. previous treatment with immunomodulators (including IFN-β1a and 1b, glatiramer acetate, laquinimod and IVIG) within the 2 months prior to screening; • 5. use of potent inhibitors of CYP3A4, for example, oral ketoconazole and erythromycin within 2 weeks prior to baseline visit; • 6. previous use of amiodarone; • 7. use of fluoxetine one month prior to baseline visit; • 8. use of substrates of CYP1A2 such as theophylline and warfarin within 2 weeks prior to screening; • 9. previous treatment with cladribine within the last 2 years prior to screening visit; • 10. subjects for whom potential immunosuppression would be contraindicated, for example, Hepatitis B/C or HIV. • 11. previous total body irradiation or total lymphoid irradiation; • 12. chronic corticosteroid treatment (30 or more consecutive days) within the 2 months prior to screening; • 13. pregnancy or breastfeeding; • 14. subjects with a clinically significant or unstable medical or surgical condition that would preclude safe and complete study participation as determined by medical history, physical exams, ECG, abnormal laboratory tests and chest X-ray. • 15. inability to give informed consent, or to complete the study, or if the subject is considered by the investigator to be, for any reason, an unsuitable candidate for the study; • 16. a known history of sensitivity to Gd; or • 17. inability to successfully undergo MRI scanning.\nThe study duration was 40 weeks and consisted of 2 periods: 4 weeks of screening period (week −4 [ screening] to week 0 [ baseline]) and 36 weeks of double blind treatment (week 0 [ baseline] to week 36 [ termination]).\nSubjects were evaluated at study sites at weeks −4, 0, 4, 8, 12, 16, 20, 24, 28, 32 and 36. Samples for inflammatory markers were collected at all visits between 0 and 36 weeks.\nBDNF concentration in serum was measured in patients in the placebo group (102 patients were in the group) and in the 0.6 mg laquinimod group (106 patients were in the group) at week 0 (V0), week 12 (v3) and week 36 (V9). […]"}, "[4]": {"system": "Balb/c mice", "assay": "Elevated Plus Maze (EPM)", "type": "in vivo", "excerpt": "The EPM model used in Examples 4.1 and 4.2 described below utilizes the natural fear of rodents to avoid open and elevated places. The apparatus consists of a plus-maze with two enclosed and two opposite open arms, elevated above the floor. […] This is one of the most widely used models to study effects of anxiety-like behavior. The maze consisted of two opposing open arms (40×10 cm) and two opposing closed arms (40×10 cm, with 40 cm walls) on a platform 50 cm above the ground. Mice were placed in the center square (10×10 cm) facing an open arm and videotaped during a 5 min exploration. Arm entries and duration were scored when all four paws enter the arm. Balb/c male mice were divided to 6 groups (5/group) and administered laquinimod (0.5, 1, 5 and 25 mg/kg p.o. in the form of laquinimod sodium solution via gavage), fluoxetine (positive control 10 mg/kg po) or vehicle daily for 3 days. On the third day, 90 min following administration, mice were exposed to the EPM for 5 minutes. Mice were placed in the center square (10×10 cm) facing an open arm and videotaped during a 5 minute exploration. Arm entries and duration was scored when all four paws enter the arm. Behavior was video recorded and analyzed using Ethovision software (Noldus Holland). Balb/c male mice were divided to 6 groups (5/group) and administered laquinimod (0.5, 1, 5 and 25 mg/kg p.o. in the form of laquinimod sodium solution via gavage), fluoxetine (positive control 10 mg/kg po) or vehicle daily for 3 days. On the third day, 90 min following administration, mice were exposed to the EPM for 5 min. Behavior was video recorded and open arms parameters were analyzed using Ethovision software (Noldus Holland)."}},
  "note": "Entries after “also recorded” stand apart in the source; their conditions may differ.",
  "data": [
    {"molecule": "CNCCC(Oc1ccc(C(F)(F)F)cc1)c1ccccc1", "note": "(stereo not drawn) [fluoxetine, reference compound]", "values": [
      {"measurement": "Antidepressant activity in FST", "setting": "[1]; Example 2.1, positive control 10 mg/kg p.o. daily for 3 days", "result": "did not show significant effect"},
      {"measurement": "Antidepressant activity in FST", "setting": "[1]; Example 2.2, positive control 10 mg/kg p.o. daily for 3 days", "result": "trend to the same activity"},
      {"measurement": "Anxiety parameters (zone 2) in open field", "setting": "[2]; Example 3.1, 10 mg/kg p.o. daily for 3 days", "result": "tended to perform more in the center"},
      {"measurement": "Motility parameters in open field", "setting": "[2]; Example 3.1, 10 mg/kg p.o. daily for 3 days, 20 min", "result": "did not modify significantly the motility parameters"},
      {"measurement": "Anxiety parameters (zones 2+3) in open field", "setting": "[2]; Example 3.2, 10 mg/kg p.o. daily for 3 days", "result": "significant anxiolytic effect"},
      {"measurement": "Anxiety parameters (zones 2+3) in open field", "setting": "[2]; Example 3.2, 10 mg/kg p.o. daily for 3 days, listed as Fluoxetine", "result": "performed significantly more in the center"}
    ]},
    {"molecule": "CCN(C(=O)c1c(O)c2c(Cl)cccc2n(C)c1=O)c1ccccc1", "note": "[Laquinimod, N-ethyl-N-phenyl-1,2-dihydro-4-hydroxy-5-chloro-1-methyl-2-oxoquinoline-3-carboxamide]", "values": [
      {"measurement": "Difference in BDNF versus placebo group", "setting": "[3]; 0.6 mg/day, V9 (week 36)", "result": "statistically significant"},
      {"measurement": "Elevation of BDNF versus placebo group", "setting": "[3]; 0.6 mg/day, starting from V3 (week 12), Confidence Level of 95%", "result": "statistically significant elevation of BDNF"},
      {"measurement": "Mean BDNF concentration in serum", "setting": "[3]; 0.6 mg laquinimod p.o. once daily group, baseline week 0 (V0)", "result": 13892.7, "unit": "pg/mL"},
      {"measurement": "Mean BDNF concentration in serum", "setting": "[3]; 0.6 mg laquinimod p.o. once daily, week 12 (V3)", "result": 15519.6, "unit": "pg/mL"},
      {"measurement": "Mean BDNF concentration in serum", "setting": "[3]; 0.6 mg laquinimod p.o. once daily, week 36 (V9)", "result": 15335.8, "unit": "pg/mL"},
      {"measurement": "Difference in mean BDNF, Laquinimod 0.6 mg-Placebo (t Test, unequal variances)", "setting": "[3]; baseline week 0 (V0)", "result": -218.0, "unit": "pg/mL"},
      {"measurement": "Difference in mean BDNF, Laquinimod 0.6 mg-Placebo (t Test, unequal variances)", "setting": "[3]; week 12 (V3)", "result": 2445.70, "unit": "pg/mL"},
      {"measurement": "Difference in mean BDNF, Laquinimod 0.6 mg-Placebo (t Test, unequal variances)", "setting": "[3]; week 36 (V9)", "result": 2552.21, "unit": "pg/mL"},
      {"measurement": "Anxiolytic activity in EPM", "setting": "[4]; Example 4.1, 0.5, 1, 5 and 25 mg/kg p.o. daily for 3 days", "result": "anxiolytic activity in a dose dependent manner"},
      {"measurement": "Anxiolytic effect in EPM (activity on the open arm)", "setting": "[4]; Example 4.1, 5 and 25 mg/kg/d x3d p.o., 5 min", "result": "significant anxiolytic effect"},
      {"measurement": "Dose of maximal effect in EPM", "setting": "[4]; Example 4.1, p.o.", "result": 25, "unit": "mg/kg"},
      {"measurement": "Anxiolytic activity in EPM", "setting": "[4]; Example 4.2, 0.5, 1, 5 and 25 mg/kg p.o. daily for 3 days", "result": "anxiolytic activity in a dose dependent manner"},
      {"measurement": "Anxiolytic effect in EPM (open arm parameters)", "setting": "[4]; Example 4.2, 5-25 mg/kg/d x3d p.o., 5 min", "result": "significant anxiolytic effect"},
      {"measurement": "Dose of maximal effect in EPM", "setting": "[4]; Example 4.2, p.o.", "result": "5 to 25", "unit": "mg/kg"},
      {"measurement": "Antidepressant activity (increased mobility, reduced immobility) in FST", "setting": "[1]; Example 2.1, 1 mg/kg p.o. daily for 3 days, 90 min after last dose", "result": "significant antidepressant activity"},
      {"measurement": "Most active dose in FST", "setting": "[1]; Example 2.1, doses tested 1-25 mg/kg/d x3d p.o.", "result": 1, "unit": "mg/kg"},
      {"measurement": "Antidepressant activity (increased mobility, reduced immobility) in FST", "setting": "[1]; Example 2.1, higher doses (25 mg/kg) p.o. daily for 3 days", "result": "trend to significance"},
      {"measurement": "Antidepressant activity (increased mobility, reduced immobility) in FST", "setting": "[1]; Example 2.2, 5 and 25 mg/kg p.o. daily for 3 days", "result": "significant antidepressant activity"},
      {"measurement": "Most potent dose, anxiety parameters (zones 2 and 3) in open field", "setting": "[2]; Example 3.1", "result": 1, "unit": "mg/kg"},
      {"measurement": "Motility parameters in open field", "setting": "[2]; Example 3.1, 1-25 mg/kg/d x3d p.o., 20 min", "result": "did not modify significantly the motility parameters; also recorded: did not modify general mobility parameters"},
      {"measurement": "Anxiety parameters (zone 2) in open field", "setting": "[2]; Example 3.1, 1-25 mg/kg/d x3d p.o., frequency, time spent, distance moved, rearings", "result": "tendency toward anxiolytic effect"},
      {"measurement": "Anxiety parameters (zone 2) in open field", "setting": "[2]; Example 3.1, 1-25 mg/kg/d x3d p.o., frequency, time spent, distance moved, rearings, listed as laquinimod", "result": "tended to perform more in the center"},
      {"measurement": "Anxiety parameters (zones 2 and 3) in open field", "setting": "[2]; Example 3.1, 1-25 mg/kg/d x3d p.o., time spent, distance moved, rearings", "result": "tendency toward anxiolytic effect"},
      {"measurement": "Anxiety parameters (zones 2 and 3) in open field", "setting": "[2]; Example 3.1, 1-25 mg/kg/d x3d p.o., time spent, distance moved, rearings, listed as laquinimod", "result": "tended to perform more in the center"},
      {"measurement": "Most potent dose, anxiety parameters in open field", "setting": "[2]; Example 3.2", "result": 5, "unit": "mg/kg"},
      {"measurement": "Motility parameters in open field", "setting": "[2]; Example 3.2, 0.5-5 mg/kg (0.5-25 mg/kg/d x3d p.o. tested)", "result": "slight increase in motility"},
      {"measurement": "Anxiety parameters (zones 2+3) in open field", "setting": "[2]; Example 3.2, 0.5-5 mg/kg p.o. daily for 3 days, frequency, time spent, rearings", "result": "performed significantly more in the center; also recorded: significant anxiolytic effect"}
    ]}
  ]
}
